Laboratory results from patent US9006191B2, “Silencing of polo-like kinase expression using interfering RNA” (Protiva Biotherapeutics, Inc., priority 2007, dated 2015).

Experiments:
[1] = tested on: Flt3-ligand derived murine dendritic cells; experiment: Cytokine induction in murine Flt3L dendritic cell cultures (ELISA); type: cell-based, mouse; conditions: murine Flt3L DC, 5 μg/ml siRNA in SNALP, 24 h
Protocol: Cytokine Induction Assays: Flt3-ligand derived murine dendritic cells (Flt3L DC) were generated as described by Gilliet et al. (J. Exp. Med., 195:953-958) using 100 ng/ml murine Flt3-ligand (PeproTech Inc.; Rocky Hill, N.J.) supplemented media. Femurs and tibiae of female Balb/C mice were isolated and rinsed in sterile PBS. The ends of bones were cut and marrow harvested in complete media (RPMI 1640, 10% heat inactivated FBS, 1% penicillin/streptomycin, 2 mM L-glutamine, 1 mM sodium pyruvate, 25 mM HEPES, 50 μM 2-mercaptoethanol). Bone marrow cells were passed through a 70 μm strainer, centrifuged at 1000 rpm for 7 minutes, and resuspended in complete media supplemented with 100 ng/ml murine Flt3L to 2×10^6 cells/ml. 2 mls of cells were seeded in 6-well plates and 1 ml fresh complete media added every two or three days. On day 9 of culture, non-adherent cells were washed in complete media and plated into 96-well plates at concentrations ranging from 0.5 to 2.5×10^5 cells/well. 2′OMe-modified and unmodified (0/0) PLK-1 SNALP were diluted in PBS and added to Flt3L DC cultures at 5 μg/ml siRNA. Cells were incubated for 24 hours at 37° C. before supernatants were assayed for cytokines by ELISA.
Cytokine ELISA: Interferon-α and IL-6 in culture supernatants were quantified using sandwich ELISA kits according to manufacturer's instructions. These were mouse IFN-α (PBL Biomedical; Piscataway, N.J.) and mouse IL-6 (eBioscience; San Diego, Calif.).
In vitro immune stimulation assays. Mouse Flt3L dendritic cell cultures were generated as described previously (65). In brief, bone marrow from Balb/C mice was harvested in complete media (RPMI 1640, 10% FBS, 1% penicillin/streptomycin, 2 mM L-glutamine, 1 mM sodium pyruvate, 25 mM HEPES, 50 uM 2-mercaptoethanol), passed through a 70 micron strainer and resuspended to 2×10^6 cells/mL in complete media supplemented with 100 ng/mL murine Flt3L (Peprotech). Cells were seeded in 6-well plates and 1 mL fresh Flt3L media added every three days. On day 9 of culture, non-adherent cells were plated into 96 well plates at a concentration 2×10^5 cells/well. Formulated siRNA were diluted in PBS and added to the cells for 24 h before supernatants were assayed for cytokines by ELISA.
Cytokine ELISA. All cytokines were quantified using sandwich ELISA kits.

[2] = tested on: PLK-1 mRNA; experiment: PLK-1 mRNA silencing in cell cultures (QuantiGene branched DNA assay); type: cell-based, human; conditions: 0.12-30 nM SNALP, 24 h
Protocol: Target mRNA Quantitation: The QuantiGene® branched DNA assay (Panomics, Inc.; Fremont, Calif.) was used to quantify the reduction of target mRNA in cell cultures treated with SNALP. Cell lysates were prepared according to the manufacturer's instructions and used directly for PLK1 mRNA quantification. Relative PLK-1 mRNA levels are expressed relative to the vehicle (PBS) treated control cells. Specific probe sets used for detection of mRNA were designed to target human PLK-1 mRNA (Genbank Accession No. NM_005030). These probe sets are cross reactive with mouse PLK-1.
PLK-1 SNALP (“2:40” SNALP formulation: 2% PEG-cDMA; 40% DLinDMA; 10% DSPC; and 48% cholesterol) were tested for their ability to silence PLK-1 mRNA in HT29 cells. Cells were plated in duplicates at relatively high concentrations (˜10,000 cells/well). QuantiGene® analysis was performed at 24 hours following transfection to detect the level of mRNA down-regulation. A visual score of the transfected cells was obtained at 48 hours following transfection. Cell viability analysis was performed at 72 hours following transfection.
SNALP containing PLK1424 or PLK773 siRNA (“2:40” SNALP formulation: 2% PEG-cDMA; 40% DLinDMA; 10% DSPC; and 48% cholesterol) were tested for their effects on cell viability and silencing of PLK-1 mRNA in HT29 and LS174T human colon cancer cells. Cells were plated in triplicate at ˜10,000 cells/well. SNALP dosages were as follows: 30 nM; 10 nM; 3.3 nM; 1.1 nM; 0.37 nM; and 0.12 nM. Branched DNA mRNA assays were performed 24 hours following transfection. Cell viability assays were performed at 72 hours following transfection. SNALP containing a non-targeting (GFP) siRNA were used as a negative control. […] The effects on cell viability correlated with silencing of the target PLK-1 mRNA.

## PLK1424-2/A: 2′OMe-modified PLK1424 duplex, SEQ ID NO:214/215 (same SEQ IDs as PLK1424 1/3 of Table 11) (chain 1 AGANCACCCNCCUNAAANAUU; chain 2 UAUUUAANGAGGGUGANCUUU; siRNA; 2'-O-methyl modifications at selected positions, key for n not given here)
[1]
  cytokine (IL-6, IFN-α) response: completely abrogated

## PLK1424: siRNA to human PLK-1, SEQ ID NO:1/2 (UU overhang form 211/212) (chain 1 AGAUCACCCUCCUUAAAUA; chain 2 UAUUUAAGGAGGGUGAUCU; further chemistry not given here)
[2]; HT29 cells
  PLK-1 mRNA levels: effective at reducing PLK-1 mRNA levels
[2]; LS174T cells
  PLK-1 mRNA levels: effective at reducing PLK-1 mRNA levels
[1]
  cytokine (IL-6, IFN-α) response: high levels of both IFNα and IL-6

## PLK773: siRNA to human PLK-1, SEQ ID NO:3/4 (UU overhang form 218/219) (chain 1 AGACCUACCUCCGGAUCAA; chain 2 UUGAUCCGGAGGUAGGUCU; RNA, backbone not given here)
[2]; HT29 cells
  PLK-1 mRNA levels: effective at reducing PLK-1 mRNA levels
[2]; LS174T cells
  PLK-1 mRNA levels: effective at reducing PLK-1 mRNA levels
[1]
  cytokine (IL-6, IFN-α) response: high levels of both IFNα and IL-6
